Test results published in patent US4107307A, “Imidazo [1,5-d]-as-triazine-4(3H)-ones and thiones” (American Cyanamid Company, priority 1977, dated 1978).

Experiments:
[1] = system: Mouse Skin Phosphodiesterase; assay: Mouse skin phosphodiesterase (PDE) inhibition test (A); type: biochemical, hairless mice; parameters: key: Active: A compound is considered active if it inhibits more than theophylline, that is, to 50% of control at 1 mM concentration of compound, or to 80% of control of 0.05 mM concentration of compound; conditions: mouse epidermal PDE, test compound 10 ug./ml., 30° C. 15 min
[2] = system: spontaneous hypertensive rats; assay: Anti-hypertensive activity, mean arterial blood pressure of conscious spontaneous hypertensive rats; type: in vivo, rat (adult male spontaneous hypertensive); conditions: second identical dose at 24th hour, vehicle controls 166
Experimental: These compounds have been tested pharmacologically and found to have such properties with a desirable wide spread between doses producing lowered blood pressure and toxic symptoms. In determining this effect of these compounds on hypertension, adult male, 16-20 weeks old, spontaneous hypertensive rats from Taconic Farms, Germantown, N.Y., weighing about 300 grams are used. The rats are dosed by gavage with the test compounds at the indicated dose. All doses of drug were suspended in 2% starch (2 ml./kg.). A second identical dose of the test compound is given at the 24th hour. The mean arterial blood pressure (MAP) of the conscious rats is measured directly by femoral artery puncture at the 28th hour.

[3] = system: Monkey Lung Cyclic AMP Phosphodiesterase; assay: Monkey lung cyclic AMP phosphodiesterase inhibition test (B); type: biochemical, African green monkeys; conditions: method: monkey lung PDE, 10^-6 M cyclic AMP, compound usually 1 mM or 0.1 mM, 25° C. 20 min
Experimental: The inhibition of phosphodiesterase is determined by the mouse skin and monkey lung phosphodiesterase (PDE) inhibition tests as follows:
(B) MONKEY LUNG INHIBITION
Preparation of Monkey Lung Cyclic AMP Phosphodiesterase
Lung parenchyma of African green monkeys is homogenized in a Waring blender and centrifuged at 40,000 × gravity for 20 minutes. The supernatant is brought to 70% saturation of ammonium sulfate, centrifuged and the pellet redissolved and dialysed, before aliquoting and storage at -20° C.
Assay of Monkey Lung Phosphodiesterase
Phosphodiesterase is assayed by the method of Thompson and Appleman, ibid. An assay tube contains a 0.4 ml. solution of the following: 45 mM tris-HCl buffer, pH 7.4, […], 0.1 mM dithioerythritol, 10^-6 M cyclic AMP, 0.1 uCi [^3 H]-cyclic AMP, and test compound at the desired concentration (usually 1 mM or 0.1 mM). Compounds not readily soluble in water are dissolved at 40 times the desired concentration in methanol, and diluted 20 times with water. If the compound is not dissolved at this time, it is suspended by sonication before being diluted 1:2 into the assay tube. In this case the activity of the enzyme in the presence of the compound is compared to a solvent control (2.5% methanol), although the solvent alone has negligible effect. The reaction is initiated by addition of enzyme and proceeds at 25° C. for 20 minutes. It is terminated by incubation at 100° C. for 2 minutes. The tubes are cooled to 25° C., 0.8 ug of 5'-nucleotidase (Crotolu adamantus toxin) is added to each and the tubes incubated at 25° C. for 30 minutes. A 1 milliliter suspension of Bio-Rad Labs. AGIX8 (about 0.5 ml. of settled resin) is added, the tubes centrifuged at 900 × gravity for 10 minutes and an aliquot of supernatant removed for scintillation counting. The inhibition by the test compound is calculated as: [formula] where `compound` is the cpm in the presence of compound, `control` is the cpm in the absence of compound, and `blank` is the cpm in the absence of enzyme. […] For this reason, control tubes which contained [^3 H]-AMP instead of [^3 H]-cyclic AMP are run in parallel. A correction of the apparent phosphodiesterase activity is made for the rare compound which inhibited the hydrolysis of AMP.

[4] = Dispersion of aerosol suspension on warming after storage; type: physicochemical; conditions: aerosol in dichlorodifluoromethane with sorbitan trioleate
Experimental: The active ingredient and sorbitan trioleate are placed in a beaker and the dichlorodifluoromethane is added at -40° C. whereupon a suspension is formed. The mixture is sonified, that is, treated with a Sonifier, manufactured by the Branson Sonic Power Co. of Danbury, Conn., as model LS-75 at a current input of 9 amperes for 2 minutes. Additional cold dichlorodifluoromethane is added as necessary to keep the volume at 100 ml. The mixture is uniformly dispersed, and has increased stability resulting from the sonification. Each of six 19 ml. stainless steel containers are filled with 15 ml. of the cold mixture, then valves are inserted and sealed in place.

Row | SMILES | Mouse Skin Phosphodiesterase (A) [1] | Monkey Lung Phosphodiesterase (B) [3] | MAP 28th hour ([2]; 100 mg/kg by gavage) [mm Hg] | other results
1 | Cc1nc(C)n2c(=O)[nH]ncc12 [6,8-Dimethyl-imidazo[1,5-d]-as-triazin-4(3H)-one] | Active | Active | – | MAP 28th hour ([2]; 50 mg/kg by gavage): 70 mm Hg
2 | Cc1nc(C)n2c(=S)[nH]ncc12 [6,8-Dimethyl-imidazo[1,5-d]-as-triazine-4-(3H)-thione] | Active | – | 93 | –
3 | Cc1nc(Cc2ccccc2)n2c(=O)[nH]ncc12 [6-Benzyl-8-methyl-imidazo[1,5-d]-as-triazin-4(3H)-one] | Active | – | – | –
4 | Cc1nc(Cc2ccccc2)n2c(=S)[nH]ncc12 [6-Benzyl-8-methyl-imidazo[1,5-d]-as-triazine-4(3H)-thione] | Active | Active | – | –
5 | O=c1[nH]ncc2cnc(Cc3ccccc3)n12 [6-Benzyl-imidazo[1,5-d]-as-triazin-4(3H)-one] | Active | – | – | –
6 | COCc1ncc2cn[nH]c(=S)n12 [6-Methoxymethyl-imidazo[1,5-d]-as-triazine-4-(3H)-thione] | – | – | 100 | –
7 | Cc1ncc2cn[nH]c(=O)n12 [6-Methyl-imidazo[1,5-d]-as-triazin-4(3H)-one] | – | – | 120 | –
8 | O=c1[nH]ncc2cnc(-c3ccccc3)n12 [6-Phenyl-imidazo[1,5-d]-as-triazin-4(3H)-one] | Active | – | 117 | –
9 | CCCc1ncc2cn[nH]c(=O)n12 [6-n-Propyl-imidazo[1,5-d]-as-triazin-4(3H)-one] | Active | – | – | –
10 | CCCc1ncc2cn[nH]c(=S)n12 [6-n-Propyl-imidazo[1,5-d]-as-triazine-4(3H)-thione] | Active | Active | 136 | –
11 | CCCOc1ccccc1-c1ncc2cn[nH]c(=O)n12 [6-o-Propoxyphenyl-imidazo[1,5-d]-as-triazine-4(3H)-one] | Active | – | – | –
12 | Cc1nc(C(C)(C)C)n2c(=O)[nH]ncc12 [6-tert-Butyl-8-methyl-imidazo[1,5-d]-as-triazin-4(3H)-one] | Active | Active | 133 | –
13 | CC(C)(C)c1ncc2cn[nH]c(=O)n12 [6-tert-Butyl-imidazo[1,5-d]-as-triazin-4(3H)-one] | Active | – | 135 | –
14 | O=c1[nH]ncc2c(Br)nc(-c3ccccc3)n12 [8-Bromo-6-phenyl-imidazo[1,5-d]-as-triazin-4(3H)-one] | Active | Active | – | –
15 | O=c1[nH]ncc2c(Cl)nc(-c3ccccc3)n12 [8-Chloro-6-phenyl-imidazo[1,5-d]-as-triazin-4(3H)-one] | Active | Active | – | –
16 | CCCc1nc(C)c2cn[nH]c(=O)n12 [8-Methyl-6-n-propyl-imidazo[1,5-d]-as-triazin-4(3H)-one] | – | – | – | MAP 28th hour ([2]; 50 mg/kg by gavage): 127 mm Hg
17 | CCCc1nc(C)c2cn[nH]c(=S)n12 [8-Methyl-6-n-propyl-imidazolo[1,5-d]-as-triazine-4(3H)-thione] | Active | Active | – | –
18 | Cc1nc(-c2ccccc2)n2c(=O)[nH]ncc12 [8-Methyl-6-phenyl-imidazo[1,5-d]-as-triazin-4(3H)-one] | Active | Active | 133 | –
19 | Cc1nc(-c2ccccc2)n2c(=S)[nH]ncc12 [8-Methyl-6-phenyl-imidazo[1,5-d]-as-triazine-4-(3H)-thione] | Active | – | 128 | –
20 | Cc1ncn2c(=O)[nH]ncc12 [8-Methyl-imidazo[1,5-d]-as-triazin-4(3H)-one] | Active | – | 91 | –
21 | Cc1ncn2c(=S)[nH]ncc12 [8-Methyl-imidazo[1,5-d]-as-triazine-4-(3H)-thione] | Active | – | – | MAP 28th hour ([2]; 25 mg/kg by gavage): 130 mm Hg
22 | CC(C)c1nc(Cl)c2cn[nH]c(=S)n12 [8-chloro-6-isopropyl-imidazo[1,5-d]-as-triazine-4(3H)-thione] | – | – | – | dispersion after storage [4]: remains dispersed
23 | S=c1[nH]ncc2cncn12 [Imidazo[1,5-d]-as-triazin-4(3H)-thione, Imidazo[1,5-d]-as-triazine-4(3H)-thione] | – | – | 123 | –
